Measurements: US12370235B2, “Synthetic, non-natural antimicrobial peptides inspired by Staphylococcus auricularis delta toxin” (University of Saskatchewan, priority 2021, dated 2025)
Ends that are not written are not given here.

How the values were obtained:
[1] = system: Candida haemulonii AR 393; experiment: MIC, YPD broth, CDC and FDA AR Candida isolate panel; assay type: cell-based; details: Table 9 below the line: only 200 or 100 μg/mL tested; values reported as 100 are ≤100 μg/mL
In short: (§1)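 Cells are diluted to optical density […] and exposed to a 2-fold peptide series. Cultures then incubate overnight at 37° C without agitation.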

[2] = system: Candida duobushaemulonii AR 394; experiment: as above; assay type: cell-based; details: Table 9 below the line: only 200 or 100 μg/mL tested; values reported as 100 are ≤100 μg/mL
In short: as §1

Candida krusei AR 397 = experiment: as above; assay type: cell-based; details: Table 9 below the line: only 200 or 100 μg/mL tested; values reported as 100 are ≤100 μg/mL
In short: as §1

[3] = system: Saccharomyces cerevisiae AR 399; experiment: as above; assay type: cell-based; details: Table 9 below the line: only 200 or 100 μg/mL tested; values reported as 100 are ≤100 μg/mL
In short: as §1

[4] = system: Candida lusitaniae AR 398; experiment: as above; assay type: cell-based; details: Table 9 below the line: only 200 or 100 μg/mL tested; values reported as 100 are ≤100 μg/mL
In short: as §1

[5] = system: Candida duobushaemulonii AR 391; experiment: as above; assay type: cell-based; details: Table 9 below the line: only 200 or 100 μg/mL tested; values reported as 100 are ≤100 μg/mL
In short: as §1

[6] = system: Saccharomyces cerevisiae AR 400; experiment: as above; assay type: cell-based; details: Table 9 below the line: only 200 or 100 μg/mL tested; values reported as 100 are ≤100 μg/mL
In short: as §1

[7] = system: Candida duobushaemulonii AR 392; experiment: as above; assay type: cell-based; details: Table 9 below the line: only 200 or 100 μg/mL tested; values reported as 100 are ≤100 μg/mL
In short: as §1

Kodamae ohmeri AR 396 = experiment: as above; assay type: cell-based; details: Table 9 below the line: only 200 or 100 μg/mL tested; values reported as 100 are ≤100 μg/mL
In short: as §1

[8] = system: Candida haemulonii AR 395; experiment: as above; assay type: cell-based; details: Table 9 below the line: only 200 or 100 μg/mL tested; values reported as 100 are ≤100 μg/mL
In short: as §1

[9] = system: Mannheimia haemolytica ATCC 33393; experiment: MIC, broth dilution; assay type: cell-based; details: Table 11; highest concentration 25 μg/mL
In short: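 Peptides (95% purity) in 2-fold dilution series were mixed with M. haemolytica diluted to OD 6×10^−4 in cation-adjusted Mueller Hinton broth and incubated standing overnight at 37 °C. MIC was the lowest concentration with no visible growth.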

C. albicans MYA-2876 = experiment: MIC, YPD broth; assay type: cell-based, Candida albicans; details: Table 8
In short: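 Minimum inhibitory concentrations against Candida albicans were determined in YPD broth (10 g/L yeast extract, 20 g/L peptone, 20 g/L dextrose) using peptides of 95% purity. A 180 μl volume of diluted yeast was combined with 20 μl of peptide in a 2-fold dilution series in 96-well plates, with sterile water as control, then incubated standing overnight at 37° C.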

[10] = system: S. aureus ATCC BAA-2094 (MRSA SCCmec type V); experiment: MIC, broth dilution; assay type: cell-based, Staphylococcus aureus; details: Table 5; STIP3 variants, highest concentration 100 μg/mL
In short: (§2)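 MIC defined as the lowest peptide level giving no growth after overnight standing incubation at 37° C. Bacteria at OD 6×10^−4 in cation-adjusted MH broth met 2-fold serial peptide dilutions; peptide purity 95%.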

[11] = system: S. aureus ATCC BAA-1683 (MRSA SCCmec type IV); experiment: MIC, broth dilution; assay type: cell-based, Staphylococcus aureus; details: Table 5; STIP3 variants, highest concentration 100 μg/mL
In short: as §2

[12] = system: S. aureus ATCC 33592 (MRSA SCCmec type III); experiment: MIC, broth dilution; assay type: cell-based, Staphylococcus aureus; details: Table 5; STIP3 variants, highest concentration 100 μg/mL
In short: as §2

[13] = system: S. aureus ATCC BAA-44 (MRSA SCCmec type I); experiment: MIC, broth dilution; assay type: cell-based, Staphylococcus aureus; details: Table 5; STIP3 variants, highest concentration 100 μg/mL
In short: as §2

[14] = system: S. aureus ATCC BAA-42 (MRSA SCCmec type VI); experiment: MIC, broth dilution; assay type: cell-based, Staphylococcus aureus; details: Table 5; STIP3 variants, highest concentration 100 μg/mL
In short: as §2

[15] = system: S. aureus ATCC BAA-2313 (MRSA SCCmec type XI); experiment: MIC, broth dilution; assay type: cell-based, Staphylococcus aureus; details: Table 5; STIP3 variants, highest concentration 100 μg/mL
In short: as §2

S. aureus ATCC 29213 = experiment: MIC, broth dilution; assay type: cell-based, Staphylococcus aureus; details: Table 5; STIP3 variants, highest concentration 100 μg/mL
In short: as §2

[16] = system: S. aureus ATCC BAA-41 (MRSA SCCmec type II); experiment: MIC, broth dilution; assay type: cell-based, Staphylococcus aureus; details: Table 5; STIP3 variants, highest concentration 100 μg/mL
In short: as §2

## TVGGLVKWILDWVKKFA [STIP3-10, TVGGLVKWILDWVKKFA]
[1]
  MIC (μg/mL) Candida haemulonii AR 393: > (values below the line were determined using two concentrations of peptide 200 or 100 μg/mL)
[2]
  MIC (μg/mL) Candida duobushaemulonii AR 394: > (values below the line were determined using two concentrations of peptide 200 or 100 μg/mL)
Candida krusei AR 397
  MIC (μg/mL) Candida krusei AR 397: > (values below the line were determined using two concentrations of peptide 200 or 100 μg/mL)
[3]
  MIC (μg/mL) Saccharomyces cerevisiae AR 399: > (values below the line were determined using two concentrations of peptide 200 or 100 μg/mL)
[4]
  MIC (μg/mL) Candida lusitaniae AR 398: > (values below the line were determined using two concentrations of peptide 200 or 100 μg/mL)
[5]
  MIC (μg/mL) Candida duobushaemulonii AR 391: > (values below the line were determined using two concentrations of peptide 200 or 100 μg/mL)
[6]
  MIC (μg/mL) Saccharomyces cerevisiae AR 400: ≤ 100 µg/mL
[7]
  MIC (μg/mL) Candida duobushaemulonii AR 392: > (values below the line were determined using two concentrations of peptide 200 or 100 μg/mL)
Kodamae ohmeri AR 396
  MIC (μg/mL) Kodamae ohmeri AR 396: > (values below the line were determined using two concentrations of peptide 200 or 100 μg/mL)
[8]
  MIC (μg/mL) Candida haemulonii AR 395: > (values below the line were determined using two concentrations of peptide 200 or 100 μg/mL)
[9]
  MIC (μg/mL) M. haemolytica: > (> symbol indicates that no inhibition was observed at the highest concentration of peptide tested: 25 μg/mL)
C. albicans MYA-2876
  MIC C. albicans MYA-2876: 50 µg/mL
[10]
  MIC S. aureus ATCC BAA 2094 (V): 100 µg/mL
[11]
  MIC S. aureus ATCC BAA 1683 (IV): > (no inhibition was observed at the highest concentration of peptide tested: 100 μg/mL for the STIP3 variants)
[12]
  MIC S. aureus ATCC 33592 (III): 100 µg/mL
[13]
  MIC S. aureus ATCC BAA 44 (I): 200 µg/mL
[14]
  MIC S. aureus ATCC BAA 42 (VI): 25 µg/mL
[15]
  MIC S. aureus ATCC BAA 2313 (XI): 50 µg/mL
S. aureus ATCC 29213
  MIC S. aureus ATCC 29213: 100 µg/mL
[16]
  MIC S. aureus ATCC BAA 41 (II): 100 µg/mL

## TVGGLVKWILKAVKKFA [STIP3-13, TVGGLVKWILKAVKKFA]
[1]
  MIC (μg/mL) Candida haemulonii AR 393: > (values below the line were determined using two concentrations of peptide 200 or 100 μg/mL)
[2]
  MIC (μg/mL) Candida duobushaemulonii AR 394: ≤ 100 µg/mL
Candida krusei AR 397
  MIC (μg/mL) Candida krusei AR 397: ≤ 100 µg/mL
[3]
  MIC (μg/mL) Saccharomyces cerevisiae AR 399: ≤ 100 µg/mL
[4]
  MIC (μg/mL) Candida lusitaniae AR 398: ≤ 100 µg/mL
[5]
  MIC (μg/mL) Candida duobushaemulonii AR 391: ≤ 100 µg/mL
[6]
  MIC (μg/mL) Saccharomyces cerevisiae AR 400: ≤ 100 µg/mL
[7]
  MIC (μg/mL) Candida duobushaemulonii AR 392: ≤ 100 µg/mL
Kodamae ohmeri AR 396
  MIC (μg/mL) Kodamae ohmeri AR 396: > (values below the line were determined using two concentrations of peptide 200 or 100 μg/mL)
[8]
  MIC (μg/mL) Candida haemulonii AR 395: > (values below the line were determined using two concentrations of peptide 200 or 100 μg/mL)
[9]
  MIC (μg/mL) M. haemolytica: 12.5 µg/mL
C. albicans MYA-2876
  MIC C. albicans MYA-2876: 50 µg/mL
[10]
  MIC S. aureus ATCC BAA 2094 (V): 25 µg/mL
[11]
  MIC S. aureus ATCC BAA 1683 (IV): 25 µg/mL
[12]
  MIC S. aureus ATCC 33592 (III): 25 µg/mL
[13]
  MIC S. aureus ATCC BAA 44 (I): 25 µg/mL
[14]
  MIC S. aureus ATCC BAA 42 (VI): 25 µg/mL
[15]
  MIC S. aureus ATCC BAA 2313 (XI): 25 µg/mL
S. aureus ATCC 29213
  MIC S. aureus ATCC 29213: 25 µg/mL
[16]
  MIC S. aureus ATCC BAA 41 (II): 12.5 µg/mL

## TVGGLVKWILNTVKKFA [STIP3-4, TVGGLVKWILNTVKKFA]
[1]
  MIC (μg/mL) Candida haemulonii AR 393: > (values below the line were determined using two concentrations of peptide 200 or 100 μg/mL)
[2]
  MIC (μg/mL) Candida duobushaemulonii AR 394: > (values below the line were determined using two concentrations of peptide 200 or 100 μg/mL)
Candida krusei AR 397
  MIC (μg/mL) Candida krusei AR 397: ≤ 100 µg/mL
[3]
  MIC (μg/mL) Saccharomyces cerevisiae AR 399: ≤ 100 µg/mL
[4]
  MIC (μg/mL) Candida lusitaniae AR 398: ≤ 100 µg/mL
[5]
  MIC (μg/mL) Candida duobushaemulonii AR 391: > (values below the line were determined using two concentrations of peptide 200 or 100 μg/mL)
[6]
  MIC (μg/mL) Saccharomyces cerevisiae AR 400: ≤ 100 µg/mL
[7]
  MIC (μg/mL) Candida duobushaemulonii AR 392: > (values below the line were determined using two concentrations of peptide 200 or 100 μg/mL)
Kodamae ohmeri AR 396
  MIC (μg/mL) Kodamae ohmeri AR 396: > (values below the line were determined using two concentrations of peptide 200 or 100 μg/mL)
[8]
  MIC (μg/mL) Candida haemulonii AR 395: > (values below the line were determined using two concentrations of peptide 200 or 100 μg/mL)
[9]
  MIC (μg/mL) M. haemolytica: 25 µg/mL
C. albicans MYA-2876
  MIC C. albicans MYA-2876: 12.5 µg/mL
[10]
  MIC S. aureus ATCC BAA 2094 (V): 50 µg/mL
[11]
  MIC S. aureus ATCC BAA 1683 (IV): 100 µg/mL
[12]
  MIC S. aureus ATCC 33592 (III): 50 µg/mL
[13]
  MIC S. aureus ATCC BAA 44 (I): 50 µg/mL
[14]
  MIC S. aureus ATCC BAA 42 (VI): 50 µg/mL
[15]
  MIC S. aureus ATCC BAA 2313 (XI): 100 µg/mL
S. aureus ATCC 29213
  MIC S. aureus ATCC 29213: 100 µg/mL
[16]
  MIC S. aureus ATCC BAA 41 (II): 50 µg/mL

## TVGVLVKWILDTVKKFA [STIP3-8, TVGVLVKWILDTVKKFA]
[1]
  MIC (μg/mL) Candida haemulonii AR 393: > (values below the line were determined using two concentrations of peptide 200 or 100 μg/mL)
[2]
  MIC (μg/mL) Candida duobushaemulonii AR 394: > (values below the line were determined using two concentrations of peptide 200 or 100 μg/mL)
Candida krusei AR 397
  MIC (μg/mL) Candida krusei AR 397: ≤ 100 µg/mL
[3]
  MIC (μg/mL) Saccharomyces cerevisiae AR 399: ≤ 100 µg/mL
[4]
  MIC (μg/mL) Candida lusitaniae AR 398: 180 µg/mL
[5]
  MIC (μg/mL) Candida duobushaemulonii AR 391: > (values below the line were determined using two concentrations of peptide 200 or 100 μg/mL)
[6]
  MIC (μg/mL) Saccharomyces cerevisiae AR 400: ≤ 100 µg/mL
[7]
  MIC (μg/mL) Candida duobushaemulonii AR 392: > (values below the line were determined using two concentrations of peptide 200 or 100 μg/mL)
Kodamae ohmeri AR 396
  MIC (μg/mL) Kodamae ohmeri AR 396: > (values below the line were determined using two concentrations of peptide 200 or 100 μg/mL)
[8]
  MIC (μg/mL) Candida haemulonii AR 395: > (values below the line were determined using two concentrations of peptide 200 or 100 μg/mL)
[9]
  MIC (μg/mL) M. haemolytica: > (> symbol indicates that no inhibition was observed at the highest concentration of peptide tested: 25 μg/mL)
C. albicans MYA-2876
  MIC C. albicans MYA-2876: > (> symbol indicates that no inhibition was observed at the highest concentration of peptide tested: 100 μg/mL)
[10]
  MIC S. aureus ATCC BAA 2094 (V): 100 µg/mL
[11]
  MIC S. aureus ATCC BAA 1683 (IV): > (no inhibition was observed at the highest concentration of peptide tested: 100 μg/mL for the STIP3 variants)
[12]
  MIC S. aureus ATCC 33592 (III): 100 µg/mL
[13]
  MIC S. aureus ATCC BAA 44 (I): 100 µg/mL
[14]
  MIC S. aureus ATCC BAA 42 (VI): 100 µg/mL
[15]
  MIC S. aureus ATCC BAA 2313 (XI): 100 µg/mL
S. aureus ATCC 29213
  MIC S. aureus ATCC 29213: 100 µg/mL
[16]
  MIC S. aureus ATCC BAA 41 (II): 100 µg/mL
